Reference: US10245270B2, “Salt of 3-[(3-{[4-(4-morpholinylmethyl)-1H-pyrrol-2-yl]methylene}-2-oxo-2,3-dihydro-1H-indol-5-yl)methyl]-1,3-thiazolidine-2,4-dione, its preparation, and formulations containing it” (LES LABORATOIRES SERVIER, priority 2013, dated 2019)
Read-outs that look alike come from different tables or passages of the source.

Experiments:
cancer cells = conditions: cited from earlier work
[1] = Constant surface area (intrinsic) dissolution kinetics at pH 2; type: physicochemical; conditions: for dissolution kinetics: pH 2 (0.01N HCl), ambient temperature, pellets of 0.075 cm^2, 100 rpm
Experimental: The constant surface area dissolution kinetics (or intrinsic dissolution kinetics) of the product of Example 1 were determined at ambient temperature at pH 2 (10 mL of 0.01N HCl) using a μDiss dissolution apparatus and pellets of 0.075 cm^2, prepared by compression at 90 bars, for 2 minutes at a stirring speed of 100 rpm.
The product of Example 1 dissolves with kinetics of 23 μg·s^−1·cm^−2+/−11%. By way of comparison, the dissolution kinetics of the corresponding hydrochloride are 1.6 μg·s^−1·cm^−2. The methanesulphonate therefore dissolves about 14 times faster than the corresponding hydrochloride.

[2] = Solubility in water, 24 hours stirring at ambient temperature, HPLC analysis; type: physicochemical; conditions: for solubility at 24 h: thermodynamic from solid
Experimental: A solution containing 140 mg of the compound obtained in Example 1 in 7 ml of water is stirred for 24 hours at ambient temperature. After filtration using an Acrodisc GJHP 0.45[…] μm, the solution is analysed by HPLC.

[3] = Purity and stability under denaturing conditions (HPLC, X-ray diffractogram, DSC); type: physicochemical
Experimental: The compound of formula (II) according to the invention has excellent stability over time even under denaturing conditions: at 25° C./60% relative humidity, at 25° C./90% relative humidity, at 30° C./65% relative humidity, at 40° C./75% relative humidity, or at 50° C., the compound of formula (II) is unchanged after 6 months.
EXAMPLE 2: PURITY AND STABILITY OF 3[(3-{[4-(4-MORPHOLINYLMETHYL)-1H-PYRROL-2-YL]METHYLENE}-2-OXO-2,3-DIHYDRO-1H-INDOL-5-YL)METHYL]-1,3-THIAZOLIDINE-2,4-DIONE METHANESULPHONATE, Z ISOMER, UNDER DENATURING CONDITIONS

[4] = After 6 months, 25° C./60% relative humidity
[5] = After 6 months, 25° C./90% relative humidity
[6] = After 6 months, 30° C./65% relative humidity
[7] = After 6 months, 40° C./75% relative humidity

For O=C1Nc2ccc(CN3C(=O)CSC3=O)cc2C1=Cc1cc(CN2CCOCC2)c[nH]1 [3-[(3-{[4-(4-morpholinylmethyl)-1H-pyrrol-2-yl]methylene}-2-oxo-2,3-dihydro-1H-indol-5-yl)methyl]-1,3-thiazolidine-2,4-dione], the “ability to inhibit the migration of cancer cells” value (cancer cells) is listed as “has the ability to inhibit the migration of cancer cells”.
With O=C1Nc2ccc(CN3C(=O)CSC3=O)cc2C1=Cc1cc(CN2CCOCC2)c[nH]1 [Example 1, 3-[(3-{[4-(4-MORPHOLINYLMETHYL)-1H-PYRROL-2-YL]METHYLENE}-2-OXO-2,3-DIHYDRO-1H-INDOL-5-YL)METHYL]-1,3-THIAZOLIDINE-2,4-DIONE METHANESULPHONATE, Z ISOMER] the dissolution kinetics [1] was 23 μg·s^−1·cm^−2, the “dissolution rate relative to the corresponding hydrochloride” value ([1]; pH 2, ambient temperature) was “about 14 times faster” and the solubility at 24 h ([2]; as the salt, read-out: solubility) was 14.7 mg/mL. For the same compound, the solubility at 24 h ([2]; base equivalent, read-out: solubility in terms of the base equivalent) was 12.1 mg/mL, the “DSC (thermogram)” value [3, 4] was “unchanged” and the “HPLC (% Example 1)” value [3, 4] was 99.8%. For the same compound, the “XR (diffractogram)” value [3, 4] was “unchanged”, the “DSC (thermogram)” value [3, 5] was “unchanged” and the “HPLC (% Example 1)” value [3, 5] was 99.8%. For the same compound, the “XR (diffractogram)” value [3, 5] was “unchanged”, the “DSC (thermogram)” value [3, 6] was “unchanged” and the “HPLC (% Example 1)” value [3, 6] was 99.8%. The “XR (diffractogram)” value [3, 6] was “unchanged”, the “DSC (thermogram)” value [3, 7] was “unchanged” and the “HPLC (% Example 1)” value [3, 7] was 99.8%. For the same compound, the “XR (diffractogram)” value [3, 7] was “unchanged”, the “DSC (thermogram)” value ([3]; After 6 months, 50° C.) was “unchanged” and the “HPLC (% Example 1)” value ([3]; After 6 months, 50° C.) was 99.8%. The “XR (diffractogram)” value ([3]; After 6 months, 50° C.) was “unchanged” and the “HPLC (% Example 1)” value ([3]; t = 0) was 99.8%.
For Cl.O=C1Nc2ccc(CN3C(=O)CSC3=O)cc2/C1=C/c1cc(CN2CCOCC2)c[nH]1 (single isomer, unassigned) [hydrochloride of 3-[(3-([4-{(4-morpholinylmethyl)-1H-pyrrol-2-yl]methylene}-2-oxo-2,3-dihydro-1H-indol-5-yl)methyl]-1,3-thiazolidine-2,4-dione, Z isomer, reference compound], the dissolution kinetics [1] was 1.6 μg·s^−1·cm^−2, the solubility ([2]; as the salt) was 4.3 mg/mL and the “solubility in terms of the base equivalent” value ([2]; base equivalent) was 4 mg/mL.
In the case of CS(=O)(=O)O.O=C1Nc2ccc(CN3C(=O)CSC3=O)cc2C1=Cc1cc(CN2CCOCC2)c[nH]1 [compound of formula (II), 3-[(3-{[4-(4-morpholinylmethyl)-1H-pyrrol-2-yl]methylene}-2-oxo-2,3-dihydro-1H-indol-5-yl)methyl]-1,3-thiazolidine-2,4-dione methanesulphonate], the “stability over time under denaturing conditions” value ([3]; after 6 months at 25° C./60% RH, 25° C./90% RH, 30° C./65% RH, 40° C./75% RH or 50° C.) was “unchanged”.
